# Data reported in patent US9133435B2, “Method for induction/differentiation into photoreceptor cell” (RIKEN, priority 2007, dated 2015).
# B1: Lefty-A: Lefty-A protein, nodal antagonist (protein, UniProt O00292 77-366, looked up)
# Left-right determination …: RFSQSFREVAGRFLASEASTHLLVFGMEQRLPPNSELVQAVLRLFQEPVPKAALHRHGRLSPRSAQARVTVEWLRVRDDGSNRTSLIDSRLVSVHESGWKAFDVTEAVNFWQQLSRPRQPLLLQVSVQREHLGPLASGAHKLVRFASQGAPAGLGEPQLELHTLDLRDYGAQGDCDPEAPMTEGTRCCRQEMYIDLQGMKWAKNWVLEPPGFLAYECVGTCQQPPEALAFNWPFLGPRQCIASETASLPMIVSIKEGGRTRPQVVSLPNMRVQKCSCASDGALVPRRLQP
# B2: Dkk-1: Recombinant Dkk-1 protein, Wnt antagonist (protein, UniProt O94907 32-266, looked up)
# Dickkopf-related protein 1: TLNSVLNSNAIKNLPPPLGGAAGHPGSAVSAAPGILYPGGNKYQTIDNYQPYPCAEDEECGTDEYCASPTRGGDAGVQICLACRKRRKRCMRHAMCCPGNYCKNGICVSSDQNHFRGEIEETITESFGNDHSTLDGYSRRTTLSSKMYHTKGQEGSVCLRSSDCASGLCCARHFWSKICKPVLKEGQVCTKHRRKGSHGLEIFQRCYCGEGLSCRIQKDHHQASNSSRLHTCQRH
# What was measured:
# [1] = system: purified ES-derived Rx+ cells; assay: Differentiation of ES-derived photoreceptor precursors into opsin+ cone and rhodopsin+ rod photoreceptors; format: cell-based, mouse; settings: for rod differentiation, factor added individually: after FACS purification and DAPT, acidic FGF 50 ng/ml, basic FGF 10 ng/ml, taurine 1 mM, shh 3 nM, RA 500 nM, from day 16, day 28
# Method: (§1) For FACS (see below), until day 9, cell aggregates were incubated in a differentiation medium under suspension culture conditions. After FACS, 1−2×10^4 sorted cells were re-suspended in a differentiation medium containing 10% FCS, and to produce re-aggregated pellets, the suspension was centrifuged at 800 g for 10 minutes. After cultivation at 37° C. for 1 hour, three to five re-aggregated pellets per cm^2 were replated on a poly-D-lysine/laminin/fibronectin-coated culture slides with a differentiation medium supplemented with 10% FCS. On day 10, the culture medium was changed to a differentiation medium not containing FCS, and containing or not containing the gamma secretase inhibitor N—[N-(3,5-difluorophenacetyl)-L-alanyl]-S-phenylglycine t-butyl ester (DAPT, 10 μM, Calbiochem).
# For photoreceptor differentiation, on day 16, the medium was replaced with a retinal culture medium containing the factors shown in FIG. 3a (66% E-MEM-HEPES (Sigma M7278), 33% HBSS (Gibco 24020-117), 1% FCS supplemented with N2, 5.75 mg/ml glucose, 200 μM L-glutamine, 100 U/ml penicillin, and 100 μg/ml streptomycin (Gibco)). aFGF (R & D Systems) and bFGF (R & D Systems) were added during differentiation for 16-24 days; taurine (Sigma), shh (R & D Systems), and RA (Sigma) were added during differentiation days 16-28. The medium was replaced with a fresh supply every 2 days.
# (§2) Immunohistological staining was performed as described previously (reference documents A20, 24). The primary antibodies used in this study were as follows: • Anti-Crx (rat/polyclonal/1:200, reference document A6), • Anti-Ki67 (mouse/monoclonal/1:200/BD), • Anti-BrdU (mouse/monoclonal/1:50/BD), • Anti-active caspase-3 (rabbit/monoclonal/1:500/BD), • Anti-red/green opsin (rabbit/polyclonal/1:1000/Chemicon), • Anti-blue opsin (rabbit/polyclonal/1:500/Chemicon), • Anti-rhodopsin (RetP1; mouse/monoclonal/1:1000/SIGMA) and • Anti-Recoverin (rabbit/polyclonal/1:5000/Chemicon).
# (§3) The immunoreactivity of each antibody was confirmed by immunostaining an appropriate retinal tissue as a positive control under the same conditions. Total cell counts were determined by counting nuclei stained by TOTO-3 or DAPI (Molecular Probes). Positive cells were counted in optical slice images prepared by confocal (Leica) or ApoTome (Zeiss) microscopy.
# (§4) For statistical analyses, at least 2500 cells were examined in each experiment, which was performed at least 3 times. All statistical analyses were performed using GraphPad InStat version 3.0 (GraphPad Software Inc., San Diego, Calif., USA). The statistical significance of differences was determined by one-way analysis of variance (ANOVA) followed by Tukey's test for the experiments in FIG. 1f, by one-way ANOVA followed by Dunnett's multiple comparison test for the experiment in FIG. 3b, by two-way ANOVA followed by Bonferroni's test for the experiment in FIG. 1j-l. Probability values less than 5% were considered significant.
# [2] = system: purified Rx+ cells; assay: Ki67 expression, BrdU uptake and active caspase 3 in purified Rx+ cells; format: cell-based, mouse
# Method: as §1
# BrdU uptake was examined by culturing the cells in a medium containing 5 μg/ml BrdU for 24 hours before fixation.
# as §2, §3, §4
# [3] = system: Retinae of E17.5 mouse; assay: Tissue culture of embryonic retina treated with DAPT (Crx staining, RT-PCR); format: cell-based; settings: 10 μM DAPT
# Method: FIG. 4 The gamma secretase inhibitor DAPT promotes the differentiation of photoreceptor precursors. Retinae of E17.5 mouse were treated, or not treated, with 10 μM DAPT under tissue culture conditions for 2-4 days. (a, b) Two days later, the retinae were stained for Crx (green) and TOTO-3 (blue). Many Crx^+ (green) photoreceptor precursors were found in the DAPT-treated retina (a), whereas several Crx^+ were found in non-treated retina (b). GC, ganglion cell layer; NBL, neuroblastic layer; ONL, outer nuclear layer. (c) RT-PCR analysis of retina treated or not treated with DAPT for 2 or 4 days. It was confirmed that the expression of Hes1 and Hes5 had been decreased in the DAPT-treated retina.
# RT-PCR analysis was performed as reported previously (reference documents A7, 20). The primers used are as follows: […]
# [4] = system: FACS-purified ES-derived Rx-GFP+ retinal progenitor cells; assay: Differentiation of FACS-purified ES-derived retinal progenitor cells into Crx+ photoreceptor precursors (immunostaining); format: cell-based, mouse
# Method: Methods for mouse ES cell maintenance and differentiation in SFEB conditions were previously reported (reference documents A7, 20). For the sake of the SFEB/DLFA, Dkk1 (R & D Systems, 100 ng/ml, during days 0-5), LeftyA (R & D Systems, 500 ng/ml, during days 0-5), 5% FCS (JRH Biosciences, during days 3-5), and Activin-A (R & D Systems, 10 ng/ml, during days 4-5) were added to a differentiation medium (G-MEM, 5% KSR, 0.1 mM non-essential amino acids, 1 mM pyruvic acid, and 0.1 mM 2-mercaptoethanol) (reference document A6).
# as §1
# On day 9, SFEB/DLFA-treated ES cell aggregates were dissociated with trypsin (0.25%, Invitrogen) and DNaseI (10 μg/ml, Sigma) into single cells. After neutralization, the cells were re-suspended in HBSS containing 0.1% BSA and 5 μg/ml propidium iodide (PI, Sigma), and passed through a cell strainer (BD) as described previously (reference documents A7, 21). The cells were counted and sorted using FACS Aria (BD Biosciences), and data were analyzed using the FACS Diva software (BD Biosciences). Dead cells were excluded by gating forward and side scatter and PI staining. Cells with Rx-GFP fluorescence (band-pass filter: FITC, 530 nm) were sorted and further cultured. […]
# as §3
# as §4, with “All statistical analyses were performed using GraphPad InStat version 3.0 (GraphPad Software Inc., San Diego, Calif., USA).” left out, “Probability values less than 5% were considered significant.” left out
# [5] = system: mouse ES cells; assay: Induction of differentiation of mouse ES cells into neural cells (βII tubulin-positive cells); format: cell-based; settings: SB-431542 0.1 to 10 μM or CKI-7 1 to 100 μM, single agent
# Method: Mouse ES cells were cultured in the presence of SB-431542 (0.1 to 10 μM) and/or CKI-7 (1 to 100 μM) under SFEB conditions. Five days after the start of the culture, the cells were recovered and re-suspended in a fresh differentiation medium, and, to produce re-aggregated pellets, the suspension was centrifuged at 800 g for 10 minutes. After cultivation at 37° C. for 1 hour, three to five re-aggregated pellets per cm^2 were replated onto poly-D-lysine/laminin/fibronectin-coated culture slides, along with differentiation medium. After cultivation for 5 days, the cells were fixed and stained with anti-βII tubulin antibody, and the ratio of βII tubulin-positive cells was determined under microscopy. The other experimental conditions were the same as those for Example 1.
# [6] = system: monkey ES cells; assay: Differentiation of monkey ES cells into retinal cells (SFEB culture, immunocytochemistry); format: cell-based, cynomolgus monkey; settings: day 40, Dkk-1 100 ng/ml, Lefty-A 500 ng/ml
# Method: ES colonies were partially dissociated with 0.25% trypsin (in a PBS containing 1 mM CaCl2 and 20% KSR) into clumps (5 to 10 cells per clump). It is noticeable that when this clumps of ES cells were too large (for example, exceeding 50 cells per aggregate), the neural induction efficiency declined. When ES cells dispersed to single cells were used, the cell viability declined, and retinal cells could not efficiently be induced. ES clumps were incubated on a gelatin-coated dish for 30 minutes, whereby STO feeders were removed. ES clumps were plated on a dish of bacterial grade using an ES differentiation medium at a density of 6.7×10^3 aggregate per ml. The composition of the differentiation medium was as follows. [G-MEM (GIBCO), 10% KSR, Lot.1139720 and 1219101, 0.1 mM non-essential amino acids, 1 mM pyruvate and 0.1 mM 2-mercaptoethanol]. […]
# Values are expressed as means±S.E.M. For statistic analysis, 100 to 200 colonies in each experiment were examined, each experiment being performed at least 3 times. […] For the experiments in FIG. 7b, statistical significance of difference was determined by one-way analysis of variance (ANOVA) followed by Dunnet's test. The data obtained from FIG. 8a, d, e, h and i were evaluated by unpaired t-test. […]
# [7] = DAPT from day 10, retinal differentiation medium from day 16, day 28
molecule,measurement,setting,value
"basic FGF: basic FGF (R & D Systems), soluble factor","rod differentiation, factor added individually",[1],promoted rod differentiation
"C[C@H](NC(=O)Cc1cc(F)cc(F)c1)C(=O)N[C@H](C(=O)OC(C)(C)C)c1ccccc1 [DAPT, N—[N-(3,5-difluorophenacetyl)-L-alanyl]-S-phenylglycine t-butyl ester]",proportion of cells positive for active caspase,[2]; day 11,0.17±0.04%
same,proportion of cells positive for active caspase,[2]; day 12,0.13±0.04%
same,proportion of cells positive for active caspase,[2]; day 14,0.10±0.07%
same,Ki67+ cell population versus non-treated cells,"[2]; day 14 and thereafter, DAPT from day 10",smaller
same,proportion of cells positive for active caspase,[2]; day 16,0.10±0.01%
same,proportion of cells positive for active caspase,[2]; day 18,0.13±0.02%
same,proportion of cells positive for active caspase,[2]; day 20,0.10±0.15%
same,"proportion of cells positive for active caspase, DAPT-treated versus non-treated","[2]; days 11-20, Ki67+ population",no significant difference
same,BrdU+ cells versus non-treated control,"[2]; days 14-20, BrdU uptake 24 hours",fewer
same,ratio of Crx+ photoreceptor precursors in embryonic retinal tissue,[3]; tissue culture,considerably increased
same,expression of the differentiation inhibitors Hes1 and Hes5,"[3]; tissue culture 2 or 4 days, RT-PCR",suppressed
same,frequency of Crx+ cell aggregates,"[4]; 10 μM DAPT, most effective on days 10 to 20",significantly raised
same,Crx expression in Rx-GFP− cells,"[4]; Rx-GFP− cells treated with DAPT from day 10, day 20",did not express Crx
same,promotion of differentiation into Crx+ photoreceptor precursors in non-FACS-sorted cells,[4]; non-FACS-sorted ES cell-derived neural retinal progenitor cells treated with DAPT,no evident promotion
same,percentage of Crx+ cells,"[4]; sorted Rx-GFP+ cells, 10 μM DAPT from day 10, determined on day 20",22.4±2.9%
same,ES-derived cells expressing blue opsin,[1]; [7],10.7±1.6%
same,ES-derived cells expressing red/green opsin,[1]; [7],11.5±2.0%
same,cells expressing rhodopsin,"[1]; DAPT only, no further factors, day 28",5.5±0.5%
NC(=O)c1ccc(-c2nc(-c3ccc4c(c3)OCO4)c(-c3ccccn3)[nH]2)cc1 [SB-431542],number of βII tubulin-positive cells,[5],increased
"NCCNS(=O)(=O)c1ccc(Cl)c2ccncc12 [CKI-7, N-(2-aminoethyl)-5-chloro-isoquinoline-8-sulfonamide]",number of βII tubulin-positive cells,[5],increased
"acidic FGF: acidic FGF (R & D Systems), soluble factor","rod differentiation, factor added individually",[1],promoted rod differentiation
NCCS(=O)(=O)O [taurine],"rod differentiation, factor added individually",[1],promoted rod differentiation
B1,ratio of Mitf+ colonies,[6],50.8±5.0%
B2,ratio of Mitf+ colonies,[6],35.3±4.4%
